Source: patent publication US20030026831A1, “Anionic liposomes for delivery of bioactive agents” (priority 2001, published 2003)
{Cy3} = Cy3 fluorescent dye label

Columns and labels:
[1] = tested on: Primary rat hippocampal neurons; experiment: Uptake of Cy3-ONs by hippocampal neurons; assay type: cell-based
Method: Hippocampal Cell Culture. Primary cultures of hippocampal neurons were prepared from neonatal rat pups (P1 or P2) as previously described (Dubinsky, 1993). Neurons were plated onto 22-mm square glass coverslips coated with collagen and polylysine, at a density of 150,000 cells per coverslip. Neurons were cultured for 24-30 hours in minimum essential medium (MEM) with 10% NUSERUM (Collaborative Research) to increase attachment to the glass substrate, after which the growing medium was replaced with Neurobasal medium with B27 supplements (Life Technologies, Rockville, Md.). Fluorodeoxyuridine (15 μg/ml) was added to restrict the growth of non-neuronal cells. Cultures were maintained at 37° C. in a humidified atmosphere containing 5% CO2 for 6-9 days before use.
Uptake of Cy3-ONs by hippocampal neurons. […] Uninternalized ONs, liposomes or complexes were removed by several washes with L15 (Leibovitz's) medium. Cells were then fixed in 4% paraformaldehyde for 15 minutes at room temperature. For low temperature studies, neurons were incubated at 4° C. with AL-Cy3ONs for 10 minutes and then fixed. The cells were imaged immediately after fixation to avoid a potential redistribution of ONs (Grzanna et al., 1998).
(§1) Confocal Microscopy and Image Analysis. Imaging was performed on a Leica TCS 4D confocal microscope (Deerfield, Ill.) equipped with a Mercury/Xenon lamp and argon/krypton laser. Cells were excited using the 488 nm laser line to detect Oregon Green 488-Transferrin and Alexa488-Dextran, and the emitted fluorescence was collected using a 515 long-pass filter. The 568 nm laser line was used to excite Cy3 and N—Rh-DOPE (LP590 emission). Cells were imaged at a plane midway between the substrate-attached plasma membrane and the top of the cell, such that neuronal nuclei were clearly identifiable. In some cases, the entire volume of the cell was scanned in 0.5 μm increments. Optimal images were obtained by averaging 16 images in the line-scan mode at the same fixed gains for all experiments. […]

[2] = tested on: Chinese hamster ovary cell line (CHO-K1); experiment: Uptake of Cy3-ONs by CHO-K1 cells; assay type: cell-based; conditions: 1 μM Cy3-ONs, 1 h at 37° C.
Method: (§2) The ability of this delivery system to deliver DNA to cell types other than neurons was investigated by studying uptake of Cy3-oligonucleotides delivered by anionic DOPC/DOPG liposomes in cells derived from a variety of tissues. CHO, HeLa, HuH-7, MDCK and MEF-1 cells all avidly internalized AL-Cy3ONs within 1 h of incubation (FIG. 2). Uptake of AL-Cy3ONs occurred in the presence of serum in the culture medium. Similar to the uniform uptake seen in primary neurons, Cy3 fluorescence was visible in almost all cells exposed to AL-Cy3ONs in all cell types studied (Table 1). On the other hand, uptake of Cy3ON either without a delivery vector or complexed to cationic DC-Chol/DOPE liposomes was cell type-dependent, ranging from ˜5% in MDCK cells to ˜50% in HeLa cells (Table 1).

[3] = tested on: Human cervical carcinoma (HeLa); experiment: Uptake of Cy3-ONs by HeLa cells; assay type: cell-based; conditions: 1 μM Cy3-ONs, 1 h at 37° C.
Method: as §2

[4] = tested on: Human hepatoma (Huh-7); experiment: Uptake of Cy3-ONs by Huh-7 cells; assay type: cell-based; conditions: 1 μM Cy3-ONs, 1 h at 37° C.
Method: as §2

[5] = tested on: Canine kidney cell line (MDCK); experiment: Uptake of Cy3-ONs by MDCK cells; assay type: cell-based; conditions: 1 μM Cy3-ONs, 1 h at 37° C.
Method: as §2

[6] = tested on: Mouse embryonic fibroblasts (MEF-1); experiment: Uptake of Cy3-ONs by LRP-expressing MEF-1 cells; assay type: cell-based; conditions: 1 μM Cy3-ONs, 1 h at 37° C.
Method: as §2
The endocytosis of AL-Cy3ONs in immortalized mouse embryonic fibroblast cell lines that expressed LRP (MEF-1) was compared to endocytosis of AL-Cy3ONs in immortalized mouse embryonic fibroblast cell lines that lacked the receptor (PEA-13).

[7] = tested on: hippocampal neurons; experiment: Colocalization with transferrin (early and recycling endosomes); assay type: cell-based, rat; conditions: delivered in anionic liposomes
Method: (§3) Colocalization of Lipids and Oligonucleotides with Transferrin and Dextran. Intracellular fates of endocytosed liposomes and ONs were determined by comparing their intracellular distributions with that of Oregon Green 488-Transferrin (OG-Tf) and Alexa488-dextran (Molecular Probes, Eugene, Oreg.) used as markers for the recycling and lysosomal compartments, respectively. Neurons were incubated with AL-Cy3ONs and either 100 μg/ml OG-Tf, for 30 minutes, 1 hour or 3 hours; or with 1 mg/ml Alexa488-dextran for 3 hours. For the lipid transport experiments, neurons were incubated with liposomes labeled with N—Rh-DOPE and either OG-TF, for 30 minutes, 1 hour, or 3 hours; or with 1 mg/ml Alexa-dextran for 3 hours. In another set of experiments, neurons were incubated with AL-Cy3ONs for 30 minutes, rinsed and chased with 1 mg/ml Alexa 488 dextran for 3 hours. Cells were rinsed and fixed for imaging as described above.
Confocal Microscopy and Image Analysis. Imaging was performed on a Leica TCS 4D confocal microscope (Deerfield, Ill.) equipped with a Mercury/Xenon lamp and argon/krypton laser. Cells were excited using the 488 nm laser line to detect Oregon Green 488-Transferrin and Alexa488-Dextran, and the emitted fluorescence was collected using a 515 long-pass filter. The 568 nm laser line was used to excite Cy3 and N—Rh-DOPE (LP590 emission). Cells were imaged at a plane midway between the substrate-attached plasma membrane and the top of the cell, such that neuronal nuclei were clearly identifiable. In some cases, the entire volume of the cell was scanned in 0.5 μm increments. Optimal images were obtained by averaging 16 images in the line-scan mode at the same fixed gains for all experiments. All fluorescent images presented in figures were equally contrast enhanced using ADOBE PHOTOSHOP (Adobe, Mountain View, Calif.).
(§4) All image analysis was performed using the METAMORPH Imaging System software (Universal Imaging, Downington, Pa.). The cell outlines for each set of double-labeled fields were traced out manually in the corresponding differential interference contrast image and then used to mask the fluorescence images. In each cell, the total fluorescence intensity was measured and the percent of Cy3 label or rhodamine label that colocalized with transferrin or dextran was calculated.

[8] = tested on: hippocampal neurons; experiment: Colocalization with dextran (late endosomes and lysosomes); assay type: cell-based, rat; conditions: 3 h, delivered in anionic liposomes
Method: as §3
as §1, with “increments.” for “increments. Optimal images were obtained by averaging 16 images in the line-scan mode at the same fixed gains for all experiments.”
as §4

Substance: Cy3-ONs without delivery system: 18-mer 5′-CTGTGAATCCTCCATGAC-3′ (SEQ ID NO:2), targets rat p53 mRNA, labeled at the 5′-end with Cy3 (DNA, 5' {Cy3}, backbone not given here; listed as Rattus norvegicus)
- Uptake of Cy3-ONs by neurons ([1]; 1 μM Cy3-ONs, 1 h, serum-containing medium): taken up by a low percentage of neurons
- Neuronal Cy3 fluorescence ([1]; 2 μM Cy3ONs, 30 minutes at 37° C.): low level of diffuse cellular fluorescence in only a small percent of cells
- Percent of cells with intracellular Cy3 fluorescence ([1]; Primary rat hippocampal neurons, 1 μM Cy3-ONs, 1 h at 37° C.): 6%
- Percent of cells with intracellular Cy3 fluorescence [2]: 17%
- Percent of cells with intracellular Cy3 fluorescence [3]: 51.5%
- Percent of cells with intracellular Cy3 fluorescence ([3]; listed as Cy3ON without a delivery vector): ~50%
- Percent of cells with intracellular Cy3 fluorescence [4]: 18.3%
- Percent of cells with intracellular Cy3 fluorescence [5]: ~5%
- Percent of cells with intracellular Cy3 fluorescence [6]: 20%
- Percent colocalization with Transferrin ([7]; 30 min, listed as Cy3ON): 14.86 ± 1%
- Percent colocalization with Transferrin ([7]; 30 min, listed as Cy3ONs): 15%
- Percent colocalization with Transferrin ([7]; 1 h): 22.67 ± 1.7%
- Percent colocalization with Transferrin ([7]; 3 h, listed as Cy3ON): 24.62 ± 2%
- Percent colocalization with Transferrin ([7]; 3 h, listed as Cy3ONs): ≤ 25%
- Percent colocalization with Dextran ([8]; listed as Cy3ON): 20.13 ± 1.8%
- Percent colocalization with Dextran ([8]; listed as Cy3ONs): 20%
